From patent US12485182B2, “Proteoglycan mimetics for enhanced wound healing, angiogenesis, and vascular repair” (The Regents of the University of California, priority 2018, dated 2025)
Entries after “also recorded” stand apart in the source; their conditions may differ. Values belong to the substance of their own block, whether it stands above or below them. Positions of bridges follow the written chain, without caps; N, C: chain ends. Non-standard residues stand in square brackets, D forms with d. No end group written: not given here.

Assays:
[1] = test system: platelets (platelet-rich plasma); assay: Platelet binding under flow on collagen-coated microchannels; type: cell-based; settings: PRP, shear rate 750 s^−1, 4 minutes
Experimental: Flow kits from Ibidi (Martinsried, Germany) were used to measure […] recruitment under flow conditions. Microchannels were coated with equine fibrillar type I collagen (Chronolog, Havertown, PA) diluted in 0.85% sodium chloride and incubated for one hour at room temperature. Unbound collagen was removed by rinsing three time with 1×PBS. The treatment molecule (DS-SILY, LXW7-DS-SILY, or LXW7-(SILY)2) was incubated in the channel for 30 minutes at room temperature, and unbound peptidoglycan was rinsed with 1× PBS.
Next, 15 mL of blood was drawn into sodium citrate vacutainers by venipuncture and centrifuged for 20 minutes at 200 Gs and 37° C. and the top layer of platelet-rich plasma (PRP) was collected. A syringe pump was used to flow PRP through microchannels at 4.2 mL/hr for a shear rate of 750 s^−1. After 4 minutes, the channels were rinsed with 100 μL, PBS to remove unbound cells. Adherent cells were stained with 10 μM CellTracker Green (ThermoFisher Scientific) in media for 30 minutes at 37° C. Channels were rinsed with 1× PBS and total fluorescence and cell number in the channels were quantified using ImageJ (NIH, Bethesda, MD).

denuded arteries [2] = assay: Ossabaw pig angioplasty model, neointimal hyperplasia (1-month recovery); type: in vivo; settings: with and without stents, vs sham
Experimental: (§1) An In vivo Ossabaw pig angioplasty model was used to assess platelet deposition (acute) and neointimal hyperplasia (1-month recovery) with DS-SILY treatment. Porous angioplasty balloons were employed for delivery of soluble DS-SILY to the target arteries in the peripheral vasculature of pigs. Renal, femoral, and iliac arteries were denuded by balloon expansion, followed by delivery through the porous balloon. Arteries were treated with and without the use of a bare metal stent and the healing response was assessed for neointimal hyperplasia. Neointimal hyperplasia was assessed by histology after 1-month recovery by measuring the distance between the internal elastic lamina and the lumen, or between a stent post and the lumen (FIG. 32).

denuded arteries [3] = assay: Ossabaw pig angioplasty model, platelet deposition (acute); type: in vivo; settings: vs saline
Experimental: as §1, with “hyperplasia.” for “hyperplasia. Neointimal hyperplasia was assessed by histology after 1-month recovery by measuring the distance between the internal elastic lamina and the lumen, or between a stent post and the lumen (FIG. 32).”
Arteries for assessing the acute response of balloon injury were harvested within hours of angioplasty. The arteries were rinsed with saline and fixed in 10% formalin overnight, and prepared for SEM visualization. […] High magnification images in FIG. 31 show numerous projections and spreading of platelets on sham control arteries, indicative of platelet activation.

EC = EC migration on collagen surfaces; type: cell-based
platelets [4] = assay: Platelet binding and activation on a collagen surface in vitro; type: cell-based
collagen = assay: DS-SILY binding to collagen
SMCs = assay: DS-SILY effects on SMCs; type: cell-based
HMVEC monolayer = assay: Endothelial monolayer permeability (transwell, RITC-dextran); type: cell-based, human; settings: by 72 hours
Experimental: The following day, an additional 50,000 cells were seeded to each insert and allowed to grow for another 24 hours. Media was then removed and replaced with 0.5 mL media to the bottom well and 0.1 mL of treatment media to the insert for 10 minutes. Treatment was removed and 0.3 mL of 1 mg/mL RITC-dextran in media was then added to each transwell insert and allowed to permeate for 30 minutes. Sample permeate was then assayed on a SpectraMax M5 plate reader for fluorescence (excitation: 570 nm; emission: 590 nm). RITC-dextran solutions and sample permeates were then aspirated and replaced with another 0.1 mL of treatment media in the transwell insert and 0.5 mL media in the bottom chamber. This procedure was repeated daily over 4 days. Treatments were also compared to inserts with cells removed by rubbing away with a pipette tip to determine the barrier efficacy of the monolayer and the degree of increased permeability.

ischemic wounds = settings: exogenous VEGF; cited from earlier work
[5] = test system: chick chorioallantoic membrane; assay: Ex ovo CAM assay, treatments eluting from collagen gels; type: in vivo; settings: after 24 hours
Experimental: Fertilized Hyline eggs obtained from the Avian Facility at UC Davis were incubated at 37° C. for 72 hours with 6 rotations per day at 80% humidity in a Grumbach egg incubator. On day 3, eggs were cracked open into disinfected weighboats (VWR) and covered with lids from square petri dishes (Fisher), and the embryos developed over a week in the incubator. On day 10, treatments encapsulated in collagen I gels were gently placed on the developing CAM. For experiments involving treatments freely eluting from the collagen gels, 100 μL of gel was polymerized in a 10-mm diameter rubber mold against a sterilized glass slide, and 1 treatment gel and 1 control gel was placed per CAM. The number of vessels in a 2-mm radius immediately surrounding the gel was manually counted in imageJ immediately after placement and 24 hours later to determine changes surrounding vessels. The change in vessels over 24 hours for treatment gels were normalized to the respective change in the control gel on the same developing embryo.

primary EPCs/ECs = assay: LXW7 binding to primary EPCs/ECs; type: cell-based
Experimental: (§2) Using primary artery-derived ECs and blood-derived EPCs as living probes to screen One-Bead-One-Compound (OBOC) combinatorial peptide libraries, several high-affinity binding ligands against the αvβ3 integrin on the surface of EPCs/ECs were identified. […] The LXW7 peptide, when grafted to surfaces, supports adhesion and spreading of EPCs and human coronary ECs, but not platelets or monocytes. Culture plates, 24-well, were coated with 500 μL of 20 μg/mL Avidin for 1 hour at 37° C. followed by washing with PBS and coating with either 500 μL molar equivalents of D-biotin, LXW7-biotin, or GRGD (SEQ ID NO: 2)-biotin. After washing with PBS and blocking with 1% BSA wells were ready for cell attachment with 5×10^4 HCAECs or THP-1 monocytes suspended in the respective maintenance medium, or freshly isolated platelets at a density of 5×10^7 platelets/cm^2 incubated for 16 h at 37° C., 5% CO2. The cells were washed with PBS, and fixed in 10% formalin for 20 min. For evaluation of HCAEC, the cells were blocked with 1% BSA and incubated overnight with mouse anti-CD31 antibody (1:100; Abcam) in 1% BSA at 4° C., followed by probing with goat anti-mouse Alexa Fluor 594 conjugate in 1% BSA. Nuclei were stained with DAPI. Images were captured using an Olympus IX81 microscope. […] Quantification of images was performed using the Image J software (NIH).

HCAECs = assay: Attachment of HCAECs to peptide-treated surfaces; type: cell-based, human; settings: biotin-peptide on Avidin-coated wells
Description: (§3) FIG. 33. Attachment of cells and platelets to LXW7 and GRGD (SEQ ID NO: 2) treated surfaces. (A) Images of attached HCAECs (left panels), THP-1 monocytes (middle panels) and platelets (right panels) on surfaces treated by D-Biotin (a-c) (control), LXW7 (d-f) or GRGD (SEQ ID NO: 2) (g-i). Scale bars in a, b, d, e, g and h are 50 μm. Scale bars in c, f and i are 20 μm. (B) The number of cells or platelets attached on different treated surfaces were quantified and statistical analyses were performed. Data were expressed as mean±standard deviation: **p<0.01 (n=4).
(§4) Using primary artery-derived ECs and blood-derived EPCs as living probes to screen One-Bead-One-Compound (OBOC) combinatorial peptide libraries, several high-affinity binding ligands against the αvβ3 integrin on the surface of EPCs/ECs were identified. […] The LXW7 peptide, when grafted to surfaces, supports adhesion and spreading of EPCs and human coronary ECs, but not platelets or monocytes. […] After washing with PBS and blocking with 1% BSA wells were ready for cell attachment with 5×10^4 HCAECs or THP-1 monocytes suspended in the respective maintenance medium, or freshly isolated platelets at a density of 5×10^7 platelets/cm^2 incubated for 16 h at 37° C., 5% CO2. […] Quantification of images was performed using the Image J software (NIH).

ECs = assay: Proliferation of ECs on LXW7-treated surfaces (MTS assay); type: cell-based; settings: surface-grafted LXW7 vs D-biotin control
Description: (§5) FIG. 34. Effects of LXW7 on EC biological functions. (A) Proliferation of ECs on LXW7-treated surfaces and D-biotin treated surface (control) assessed by MTS assay. Data were expressed as mean±standard deviation: **p<0.01, ***p<0.001 (n=4). (B) Western-blot analysis of the effect of LXW7 on phosphorylation of VEGFR2 (Tyr1175) and phosphorylation of ERK1/2 (left panels) and quantified by densitometry (right panels). Data were expressed as mean±standard deviation: *p<0.05, **p<0.01 (n=4).
(§6) To test the ability of LXW7 to promote endothelialization, we evaluated polymer-based small diameter vascular grafts (ID 1 mm) functionalized with LXW7 via Click chemistry in a rat carotid artery bypass model (FIG. 35). […] After 6 weeks post implantation, 5 out of 6 LXW7-modified grafts were patent versus only 1 out of 6 control grafts was patent (FIG. 35). […] This confirms that LXW7 coating on the luminal surface of synthetic vascular grafts can generate a “living” endothelium.

THP-1 monocytes [6] = assay: Attachment of THP-1 monocytes to peptide-treated surfaces; type: cell-based; settings: biotin-peptide on Avidin-coated wells
Description: as §3, §4

VEGFR2 = assay: Western-blot, phosphorylation of VEGFR2 (Tyr1175); type: cell-based; settings: surface-grafted LXW7
Description: as §5, §6

platelets [7] = assay: Attachment of platelets to peptide-treated surfaces; type: cell-based; settings: biotin-peptide on Avidin-coated wells
Description: as §3, §4

THP-1 monocytes [8] = assay: LXW7 binding to THP-1 monocytes; type: cell-based
Experimental: as §2

platelets [9] = assay: LXW7 binding to platelets; type: cell-based
Experimental: as §2

ERK1/2 = assay: Western-blot, phosphorylation of ERK1/2; type: cell-based; settings: surface-grafted LXW7
Description: as §5, §6

binding to collagen (collagen): high affinity
Substance: DS-SILY: antithrombotic proteoglycan mimetic; dermatan sulfate with collagen-binding SILY peptides (RRANAALKAGELYKSILYGSG; not fully specified; also: conjugated to dermatan sulfate backbone, attachment not given here)
platelet binding under flow [1]: low platelet binding
neointimal hyperplasia (denuded arteries [2]): minimal intimal hyperplasia is observed
platelet activation (morphology) on denuded artery (denuded arteries [3]; SEM): remained largely rounded
platelet binding on denuded artery (denuded arteries [3]; delivery through porous balloon after balloon angioplasty): platelets are scarcely found on the denuded artery; also recorded: almost completely inhibited platelet binding
promotion of EC migration compared to control collagen surfaces (EC): up to 32%
inhibition of platelet binding and activation on a collagen surface (platelets [4]): ~90%
SMC migration and proliferation (SMCs): suppresses SMC migration and proliferation
inflammatory cytokine production (SMCs): suppresses inflammatory cytokine production
protein production by SMCs (SMCs): suppresses, but does not eliminate protein production by SMCs

Substance: VEGF
monolayer permeability vs untreated controls (HMVEC monolayer): significantly different from untreated controls
increase in granulation tissue formation (ischemic wounds): up to 150%
vasculogenic activity ([5]; 2 μg/mL): comparable vasculogenic activity

binding to primary EPCs/ECs (primary EPCs/ECs): bind strongly
HCAEC binding to treated surface (HCAECs): supported robust HCAEC binding
monocyte binding to treated surface (THP-1 monocytes [6]): not monocyte or platelet binding
binding to THP-1 monocytes (THP-1 monocytes [8]): does not bind
Substance: cyclic cGRGDdvc ([dC]GRGD[dD][dV][dC]; disulfide 1-8 (inferred)) [LXW7, cyclic octapeptide ligand against the αvβ3 integrin]
cell proliferation (ECs): stimulated cell proliferation
phosphorylation of VEGF2 receptor (VEGFR2): stimulated
platelet binding to treated surface (platelets [7]): not monocyte or platelet binding
binding to platelets (platelets [9]): weakly
surrounding vessel growth ([5]; 100 μM eluted from collagen gels): either decreased or caused no changes in surrounding vessel growth
phosphorylation of ERK ½ (ERK1/2): stimulated
